Bounds are passed on as bounds.

The experiment deals with T1, human IDO1/HEK293 cells (Homo sapiens, UniProt P14902).
T1 construct: expressed in transfected cells
T1 sequence (P14902 whole entry): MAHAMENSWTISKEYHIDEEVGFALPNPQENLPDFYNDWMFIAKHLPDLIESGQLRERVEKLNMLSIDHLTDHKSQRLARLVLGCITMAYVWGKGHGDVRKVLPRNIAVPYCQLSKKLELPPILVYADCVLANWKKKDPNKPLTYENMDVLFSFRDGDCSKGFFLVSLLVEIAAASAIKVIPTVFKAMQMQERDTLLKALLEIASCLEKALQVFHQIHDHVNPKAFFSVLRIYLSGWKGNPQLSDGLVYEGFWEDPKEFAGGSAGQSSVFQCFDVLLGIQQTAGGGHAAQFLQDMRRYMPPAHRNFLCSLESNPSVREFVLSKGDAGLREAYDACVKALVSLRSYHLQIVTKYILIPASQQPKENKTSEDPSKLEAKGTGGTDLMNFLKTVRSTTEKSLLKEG
Description: HEK Human IDO-1 cell-based IDO inhibition assay (kynurenine production). The note with it: HEK293 cells stably expressing human IDO1, 20 hours incubation, absorbance at 490 nm; read-out: HEK Human IDO-1 Bio Activity (IDO IC50). The procedure, abridged: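 Stopped with 0.2% TCA, 50 °C 30 min; supernatant mixed with 0.2% Ehrlich reagent, 30 min RT, kynurenine read as absorbance at 490 nm.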
On to `CCC(NC(=O)c1ccc(-n2cccc2)cc1)[C@H]1CC[C@@H](c2ccnc3ccc(C(F)(F)F)cc32)CC1` (stereo partly shown) [Example 255, 4-(1H-pyrrol-1-yl)-N-(1-((1s, 4s)-4-(6-(trifluoromethyl)quinolin-4-yl)cyclohexyl)propyl)benzamide], for which the IC50 – broadly, the midpoint of a concentration-inhibition curve – was less than 50 nM.
To `C[C@@H](NC(=O)c1cccc(-c2ccccc2)c1)[C@H]1CC[C@@H](c2ccnc3ccc(F)cc32)CC1` [Example 61, N-((R)-1-((1s,4S)-4-(6-fluoroquinolin-4-yl)cyclohexyl)ethyl)-[1,1′-biphenyl]-3-carboxamide] belongs less than 50 nM.
To `COc1ccc(-c2ccc(C(=O)N[C@H](C)[C@H]3CC[C@@H](c4ccnc5ccc(F)cc54)CC3)cc2)cn1` [Example 245, N-((R)-1-((1s,4S)-4-(6-fluoroquinolin-4-yl)cyclohexyl)ethyl)-4-(6-methoxypyridin-3-yl)benzamide] belongs less than 50 nM.
Regarding `O=C(Nc1ccc(F)c(F)c1)N[C@H]1CC[C@H](c2ccnc3ccc(F)cc32)CC1` [Example 123, 1-(3,4-difluorophenyl)-3-(trans-4-(6-fluoroquinolin-4-yl)cyclohexyl)urea], the IC50 is less than 250 nM.
To `Cc1cnc(-c2ccc(C(=O)N[C@H](C)[C@H]3CC[C@@H](c4ccnc5ccc(F)cc54)CC3)cc2)s1` [Example 252, N-((R)-1-((1s,4S)-4-(6-fluoroquinolin-4-yl)cyclohexyl)ethyl)-4-(5-methylthiazol-2-yl)benzamide] belongs less than 50 nM; to `O=C(Nc1ccc(F)cc1F)N[C@H]1CC[C@H](c2ccnc3ccc(F)cc32)CC1` [Example 122, 1-(2,4-difluorophenyl)-3-(trans-4-(6-fluoroquinolin-4-yl)cyclohexyl)urea], less than 250 nM; to `CCC(NC(=O)c1ccc(Cl)cc1)C1CCC(c2cccc(C(F)F)n2)CC1` (mixture of isomers) [Example 231a, 4-chloro-N-(1-(4-(6-(difluoromethyl)pyridin-2-yl)cyclohexyl)propyl)benzamide], less than 250 nM.
To `C[C@@H](NC(=O)c1ccc(C2(C)CC2)cc1)[C@H]1CC[C@@H](c2ccnc3ccc(F)cc32)CC1` [Example 248, N-((R)-1-((1s,4S)-4-(6-fluoroquinolin-4-yl)cyclohexyl)ethyl)-4-(1-methylcyclopropyl)benzamide] belongs less than 50 nM; to `O=C(Nc1ccc(Cl)cc1F)NC1CCN(c2ccnc3ccc(F)cc23)CC1` [Example 92, 1-(4-Chloro-2-fluorophenyl)-3-(1-(6-fluoroquinolin-4-yl)piperidin-4-yl)urea], less than 2000 nM.
`CC(NC(=O)c1ccc(Cl)cc1)C1CCC(c2ccnc(C(F)(F)F)c2)CC1` (stereo not shown) [Example 211, 4-chloro-N-(1-(4-(2-(trifluoromethyl)pyridin-4-yl)cyclohcxyl)ethyl)benzamide]: the IC50 was less than 250 nM.
In the case of `CCC(NC(=O)c1ccc(Cl)cc1)[C@H]1CC[C@@H](Oc2ccncc2)CC1` (mixture of isomers) [Example 77a, (±)-4-Chloro-N-(1-((cis)-4-(pyridin-4-yloxy)cyclohexyl)propyl)benzamide], the IC50 was less than 250 nM.
To `O=C(N[C@H]1CC[C@@H](c2ccnc3ccc(F)cc32)CC1)c1ccc(Cl)cc1` [Example 149, 4-chloro-N-(cis-4-(6-fluoroquinolin-4-yl)cyclohexyl)benzamide] belongs less than 250 nM.
To `CC(NC(=O)c1ccc(Cl)cc1)C1CCC(c2ccc(C(F)(F)F)nc2)CC1` (single isomer, unassigned) [Example 220, 4-chloro-N-(1-(4-(6-(trifluoromethyl)pyridin-3-yl)cyclohexyl)ethyl)benzamide] belongs less than 250 nM; to `Cc1cnccc1C1CCC(C(C)NC(=O)c2ccc(Cl)cc2)CC1` (stereo not shown) [Example 160a, 4-chloro-N-(1-(4-(3-methylpyridin-4-yl)cyclohexyl)ethyl)benzamide], less than 50 nM; to `O=C(NCC1CCN(c2ccnc3ccc(F)cc23)CC1)c1cccc(Cl)c1` [Example 90], less than 2000 nM.
On to `O=C(Nc1ccc(F)cc1)NC1CCN(c2ccnc3ccc(F)cc23)CC1` [Example 93, 1-(4-Fluorophenyl)-3-(1-(6-fluoroquinolin-4-yl)piperidin-4-yl)urea], for which the IC50 was less than 2000 nM.
Turning to `COc1ccccc1C(=O)N[C@H](C)[C@H]1CC[C@@H](c2ccnc3ccc(F)cc32)CC1` [Example 52, N-((R)-1-((1s,4S)-4-(6-fluoroquinolin-4-yl)cyclohexyl)ethyl)-2-methoxybenzamide], the half-maximal inhibitory concentration (IC50) was less than 50 nM.
To `CC(C(=O)N[C@H]1CC[C@@H](c2ccnc3ccc(F)cc32)CC1)c1ccc(Cl)cc1` (stereo partly drawn) [Example 148, 2-(4-chlorophenyl)-N-(cis-4-(6-fluoroquinolin-4-yl)cyclohexyl)propanamide] belongs less than 2000 nM; to `C[C@@H](NC(=O)c1ccc(-n2ccnc2)cc1)[C@H]1CC[C@@H](c2ccnc3ccc(F)cc32)CC1` [Example 196, N-((R)-1-(cis-4-(6-fluoroquinolin-4-yl)cyclohexyl)ethyl)-4-(1H-imidazol-1-yl)benzamide], less than 50 nM.
To `CC[C@H](NC(=O)c1ccc(Cl)cc1)[C@H]1CC[C@@H](c2cnc3ccccc3c2)CC1` (single isomer, unassigned) [Example 203b] belongs less than 250 nM; to `O=C(Nc1ccc(F)cc1)N[C@H]1CC[C@H](c2ccnc3ccc(F)cc32)CC1` [Example 124, 1-(4-fluorophenyl)-3-(trans-4-(6-fluoroquinolin-4-yl)cyclohexyl)urea], less than 50 nM; to `C[C@@H](NC(=O)c1ccc(-c2ccc(S(C)(=O)=O)nc2)cc1)[C@H]1CC[C@@H](c2ccnc3ccc(F)cc32)CC1` [Example 237, N-((R)-1-((1s,4S)-4-(6-fluoroquinolin-4-yl)cyclohexyl)ethyl)-4-(6-(methylsulfonyl)pyridin-3-yl)benzamide], less than 2000 nM.
To `Cc1ccccc1C(=O)N[C@H](C)[C@H]1CC[C@@H](c2ccnc3ccc(F)cc32)CC1` [Example 49, N-((R)-1-((1s,4S)-4-(6-fluoroquinolin-4-yl)cyclohexyl)ethyl)-2-methylbenzamide] belongs less than 50 nM.
Regarding `CC[C@@H](NC(=O)c1ccc(Cl)cc1)[C@H]1CC[C@H](c2cnc3ccccc3c2)CC1` (single isomer, unassigned) [Example 203c], the IC50 is less than 50 nM.
To `CCC(NC(=O)c1ccc(OC)nc1)[C@H]1CC[C@@H](c2ccnc3ccc(C(F)(F)F)cc32)CC1` (stereo partly shown) [Example 256, 6-methoxy-N-(1-((1s, 4S)-4-(6-(trifluoromethyl)quinolin-4-yl)cyclohexyl)propyl)nicotinamide] belongs less than 50 nM; to `O=C(Nc1ccc(Cl)cc1)N[C@H]1CC[C@@H](c2ccnc3ccc(F)cc32)CC1` [Example 125, 1-(4-Chlorophenyl)-3-(cis-4-(6-fluoroquinolin-4-yl)cyclohexyl)urea], less than 250 nM.
To `CCC(NC(=O)c1ccc(Cl)cc1)[C@H]1CC[C@@H](Oc2ccnc3ccccc23)CC1` (stereo partly drawn) [Example 80, 4-Chloro-N-(1-(cis-4-(quinolin-4-yloxy)cyclohexyl)propyl)benzamide] belongs less than 2000 nM.
To `CC1(CNC(=O)c2ccc(Cl)cc2)CCN(c2ccnc3ccc(F)cc23)CC1` [Example 226, 4-Chloro-N-((1-(6-fluoroquinolin-4-yl)-4-methylpiperidin-4-yl)methyl)benzamide] belongs less than 2000 nM; to `C[C@@H](NC(=O)c1ccc(-c2cnccn2)cc1)[C@H]1CC[C@@H](c2ccnc3ccc(F)cc32)CC1` [Example 233, N-((R)-1-((1s,4S)-4-(6-fluoroquinolin-4-yl)cyclohexyl)ethyl)-4-(pyrazin-2-yl)benzamide], less than 50 nM.
On to `Cc1c(C2CCC(C(C)NC(=O)c3ccc(Cl)cc3)CC2)ccnc1F` (stereo not shown) [Example 158a, 4-chloro-N-(1-(4-(2-fluoro-3-methylpyridin-4-yl)cyclohexyl)ethyl)benzamide], for which the IC50 is less than 50 nM.
To `CCC(NC(=O)c1ccc(Cl)cc1)C1CCC(c2cccc(C(F)F)n2)CC1` (single isomer, unassigned) [Example 231b, 4-chloro-N-(1-(4-(6-(difluoromethyl)pyridin-2-yl)cyclohexyl)propyl)benzamide] belongs less than 2000 nM; to `COc1ccc(S(=O)(=O)N[C@H](C)[C@H]2CC[C@@H](c3ccnc4ccc(F)cc43)CC2)cc1` [Example 46, N-((R)-1-((1s,4S)-4-(6-fluoroquinolin-4-yl)cyclohexyl)ethyl)-4-methoxybenzenesulfonamide], less than 2000 nM.
To `COc1ccc(C(=O)N[C@H](C)[C@H]2CC[C@@H](c3ccnc4ccc(F)cc43)CC2)cc1` [Example 68, N-((R)-1-((1s,4S)-4-(6-fluoroquinolin-4-yl)cyclohexyl)ethyl)-4-methoxybenzamide] belongs less than 50 nM.
To `O=C(O)Cc1ccc(CN[C@H]2CC[C@H](c3ccnc4ccc(F)cc43)CC2)cc1` [Example 139, 2-(4-(((trans-4-(6-Fluoroquinolin-4-yl)cyclohexyl)amino)methyl)phenyl)acetic acid] belongs less than 2000 nM; to `C[C@@H](NC(=O)c1ccc(C(F)(F)F)cc1)[C@H]1CC[C@@H](c2ccnc3ccc(F)cc32)CC1` [Example 249, N-((R)-1-((1s,4S)-4-(6-fluoroquinolin-4-yl)cyclohexyl)ethyl)-4-(trifluoromethyl)benzamide], less than 50 nM; to `Cc1cccc(S(=O)(=O)N[C@H](C)[C@H]2CC[C@@H](c3ccnc4ccc(F)cc43)CC2)c1` [Example 40, N—((R)-1-((1 s,4S)-4-(6-Fluoroquinolin-4-yl)cyclohexyl)ethyl)-3-methylbenzenesulfonamide], less than 2000 nM.
Take `Cc1ncc(-c2ccc(C(=O)N[C@H](C)[C@H]3CC[C@@H](c4ccnc5ccc(F)cc54)CC3)cc2)s1` [Example 238, N-((R)-1-((1s,4S)-4-(6-fluoroquinolin-4-yl)cyclohexyl)ethyl)-4-(2-methylthiazol-5-yl)benzamide]: the IC50 was less than 50 nM.

Values taken from US20180325889A1, “IMMUNOREGULATORY AGENTS” (FLEXUS BIOSCIENCES, INC., priority 2014, published 2018).
